Patent US20250127165A1, “USE OF 2-AMINO-3-PHENYLBUTYRIC ACID OR 2,6-DIAMINO-3-METHYLHEXANOIC ACID AS PLANT IMMUNE RESISTANCE INDUCER” (NANJING TIANNONG BIOTECHNOLOGY CO., LTD., priority 2021, published 2025)

Legend:
[1] = system: tea seedlings (Baiye 1); test: Induced resistance of tea tree to low temperature stress; format: in vivo; conditions: for PIABS (photosynthetic performance index): after −4° C. for 24 h; for cold injury index (%): −4° C. 24 h, 3 days recovery
Experimental: The tea tree tested was cutting seedling of Baiye 1. Tea seedlings with consistent growth were selected and transplanted into plastic pots with a diameter of 18 cm and placed in a greenhouse with a temperature of 25° C. and a humidity of 60%-70% for adaptive growth for about a week for the experiment. The concentrations used in this experiment were 0, 100, 1,000, and 10,000 nM, and 0.02% Tween 20 was added as surfactant, where the spray treatment method was the same as that of Arabidopsis thaliana in Example 1, the duration of low temperature stress was 24 hours, and the temperature was set to −4° C. After the stress was completed, the tea seedlings were removed and after 30 min of dark treatment at room temperature, the chlorophyll fluorescence of the top leaves of the tea seedlings was measured with Plant Efficiency Handy PEA. The tea seedlings were then placed in a greenhouse at 25° C. for 3 days for recovery. Then the condition of cold injury was observed and graded, where the grading standard of cold injury is shown Table 12, the formula for calculating the cold injury index is as follows.
The concentrations of 2,6-diamino-3-methylhexanoic acid used in the trail were 0, 1, 10, 100, and 1,000 nM, and 0.02% Tween 20 was added as surfactant. The effect of 2,6-diamino-3-methylhexanoic acid to induce the resistance of tea to low-temperature stress was investigated according to the method as described above.

[2] = system: Arabidopsis thaliana; test: Induced resistance of Arabidopsis thaliana to high temperature stress; format: in vivo; conditions: for heat injury index (%): 45° C. 12 h, 7 days recovery; for PIABS (photosynthetic performance index): after 45° C. for 12 h
Experimental: 2-amino-3-phenylbutyric acid was dissolved in distilled water and then gradiently diluted with distilled water into solutions of 100 nM, 1,000 nM, and 10,000 nM, and a blank control was set up, while 0.02% Tween 20 was added as surfactant. Four groups of replicates were set up for each concentration, and set up a blank control at room temperature. Arabidopsis thaliana seeds were planted in a pot with a diameter of 8.5 cm at about 50 seeds per pot, and grown in a greenhouse at a temperature of 22° C., a humidity of 60%-70%, and a light intensity of 100 μmol m^−2s^−1 (16 h light/8 h darkness). The treatment was initiated at the 21 d of seedling stage of Arabidopsis thaliana by spraying 2-amino-3-phenylbutyric acid solution on the leaf surface, and spraying twice within 24 hours. 24 hours after the second treatment, the plants were transferred to a light incubator at a temperature of 45° C. for high temperature stress treatment. After 12 h of treatment, they were treated in the dark at room temperature for 30 min, and then the chlorophyll fluorescence of the Arabidopsis thaliana leaves was measured with Plant Efficiency Handy PEA. Then, the plants were removed and transferred to a greenhouse at 25° C. for 7 days for recovery. The injured conditions of the plants were observed and the grade of hot injury was calculated, where the grading standard of heat injury is shown in Table 1, and the formula for calculating the heat injury index is as follows.
The concentrations of 2,6-diamino-3-methylhexanoic acid used in this trail are 0, 1, 10, 100 and 1,000 nM, and 0.02% Tween 20 is added as a surfactant. Four groups of replicates were set up. Other methods were the same as 2-amino-3-phenylbutyric acid, and the effect of 2,6-diamino-3-methylhexanoic acid to induce the resistance of Arabidopsis thaliana to high temperature stress was investigated.

[3] = system: wheat powdery mildew; test: Induced resistance of wheat seedlings to powdery mildew infection (pot test); format: in vivo, wheat (NAU0686); conditions: for disease index / relative immunization effect: concentration higher than 1,000 nM
Experimental: 2-amino-3-phenylbutyric acid was dissolved in distilled water and then gradiently diluted with distilled water into solutions of 10 nM, 100 nM, 1,000 nM, and 10,000 nM, and a blank control was set up. After germination, wheat (NAU0686) seeds were planted in sterilized soil culture pot, and cultured in a greenhouse at 23° C. (+1° C.) and 12-h light/dark conditions. When the seedlings grew to the 1-leaf-1-heart stage, a solution of 2-amino-3-phenylbutyric acid at the above concentrations was sprayed onto the stems and leaves of wheat seedlings, and repeated the treatment at 24-hour intervals for a total of two treatments. After 24 hours, fresh wheat powdery mildew spores were uniformly sprinkled onto the wheat leaves, and each treatment comprised three pots of seedlings, with 20 plants per pot. After 10 days, the disease grade of wheat in each treatment group was investigated, and the morbidity degree was recorded according to the grading standard of wheat powdery in the “Pesticides-Guidelines for the Field Efficacy Trails” (I), and the disease index and the relative immunization effect were calculated in the same manner as those of tomato spotted wilt.
Grading Standard of Wheat Powdery Mildew (per leaf): • Grade 1: The area of diseased spots accounts for 5% or less of the whole leaf area; • Grade 3: The area of diseased spots accounts for 6%-15% of the whole leaf; • Grade 5: The area of diseased spots accounts for 16%-25% of the whole leaf; • Grade 7: The area of diseased spots accounts for 26%-50% of the whole leaf; • Grade 9: The area of diseased spots accounts for 50% or more of the whole leaf area.

[4] = system: cotton (Sikang 1); test: Induced resistance of cotton to salt stress (100 mM NaCl); format: in vivo; conditions: three days
Experimental: The experimental material was “Sikang 1” cotton, which was hydroponic cultured in a 500 mL plastic cup and ½ Hoagland nutrient solution was changed every three days. When the cotton seedling grew until the second true leaf fully unfolded, the leaf surface was sprayed with 2-amino-3-phenylbutyric acid solution. The concentrations used in this experiment were 0, 1, 10, 100, and 1,000 nM, and 0.02% Tween 20 was added as surfactant. The spraying was repeated once every 24 hours for a total of 2 times. On the second day after the treatment, NaCl was added to the ½ Hoagland nutrient solution to a final concentration of 100 mM to perform salt stress treatment. Each treatment was performed in triplicate. After three days of salt stress, rehydration treatment was performed, the salt injury symptoms of cotton were observed, and calculate the salt injury index was calculated. The formula is as follows: […]

[5] = 10,000 nM, versus untreated heat-stressed group

Compound	PIABS (photosynthetic performance index) ([1]; 100 nM)	cold injury index (%) ([1]; 100 nM)	PIABS (photosynthetic performance index) ([1]; 1,000 nM)	cold injury index (%) ([1]; 1,000 nM)	heat injury index (%) ([2]; 100 nM)	PIABS (photosynthetic performance index) ([2]; 100 nM)	heat injury index (%) ([2]; 1,000 nM)	PIABS (photosynthetic performance index) ([2]; 1,000 nM)	relative immunization effect (%) ([3]; 10 nM)	relative immunization effect (%) ([3]; 100 nM)	relative immunization effect (%) ([3]; 1,000 nM)	relative immunization effect (%) ([3]; 10,000 nM)	disease index [3]	relative immunization effect [3]	mortality (%) ([4]; 1 nM)	salt injury index (%) ([4]; 1 nM)	mortality (%) ([4]; 10 nM)	salt injury index (%) ([4]; 10 nM)	mortality (%) ([4]; 100 nM)	salt injury index (%) ([4]; 100 nM)	also measured
CC(CCCN)C(N)C(=O)O (stereo not shown) [2,6-diamino-3-methylhexanoic acid]	37.41 ± 0.14 b	33%	40.14 ± 0.15 a	26%	29%	5.73 ± 0.17 c	9%	9.49 ± 0.14 b	28.13%	48.99%	65.26%	73.45%	lower than 50	more than 50%	46%	53%	40%	49%	27%	42%	PIABS (photosynthetic performance index) ([1]; 1 nM): 25.53 ± 0.09; cold injury index (%) ([1]; 1 nM): 46%; PIABS (photosynthetic performance index) ([1]; 10 nM): 32.44 ± 1.51 c; cold injury index (%) ([1]; 10 nM): 42%; decrease of cold injury index ([1]; 1,000 nM): 45%; increase of PIABS ([1]; 1,000 nM): 121%; heat injury index (%) ([2]; 1 nM): 49%; PIABS (photosynthetic performance index) ([2]; 1 nM): 1.84 ± 0.02 e; heat injury index (%) ([2]; 10 nM): 38%; PIABS (photosynthetic performance index) ([2]; 10 nM): 3.58 ± 0.11 days; increase of PIABS compared with the control group ([2]; 1,000 nM): 36 fold; decrease of heat injury index ([2]; 1,000 nM, versus untreated heat-stressed group): 64%; mortality (%) ([4]; 1,000 nM): 23%; salt injury index (%) ([4]; 1,000 nM): 36%
CC(c1ccccc1)C(N)C(=O)O (stereo not shown) [2-amino-3-phenylbutyric acid]	21.83 ± 1.73 bc	66.33%	33.67 ± 3.27 b	45%	47%	26.13 ± 7.37 bc	31%	27.27 ± 3.93 bc	19.88%	30.77%	55.38%	66.92%	lower than 50	more than 50%	49%	66.67%	46%	55%	32%	51%	decrease of cold injury index ([1]; 10,000 nM): 35%; increase of PIABS ([1]; 10,000 nM): 147%; PIABS (photosynthetic performance index) ([1]; 10,000 nM): 42.36 ± 3.51 a; cold injury index (%) ([1]; 10,000 nM): 40%; heat injury index (%) ([2]; 10,000 nM): 16%; PIABS (photosynthetic performance index) ([2]; 10,000 nM): 33.40 ± 3.91 b; decrease of heat injury index [2, 5]: 56%; increase of PIABS [2, 5]: 134%; mortality (%) ([4]; 1,000 nM): 28%; salt injury index (%) ([4]; 1,000 nM): 42%
